Measured values as given in ChEMBL document CHEMBL5126515, “Progress of thrombus formation and research on the structure-activity relationship for antithrombotic drugs” (Eur J Med Chem, 2022).
Values after ≈ are worked out from the molar mass of the structure shown. Each block holds one compound with its values, some of them ahead of it.

Legend:
Rattus norvegicus = organism: Rattus norvegicus; experiment: Antiplatelet aggregration activity in arteriovenous bypass thrombosis rat model assessed as aggregation inhibition rate relative to control; type: functional
[1] = Antiplatelet activity in platelet (unknown origin) assessed as inhibition of ADP-induced platelet aggregation relative to control; type: functional, cell-based
Platelet = experiment: Potency index ratio of IC50 for CCI-17810 to IC50 test compound against antiplatelet activity in platelet (unknown origin); type: functional
P2Y purinoceptor 1 = P2Y purinoceptor 1 (Homo sapiens, UniProt P47900); experiment: Antagonist activity at P2Y1 receptor (unknown origin); type: functional
P2Y purinoceptor 1, sequence (P47900 whole entry): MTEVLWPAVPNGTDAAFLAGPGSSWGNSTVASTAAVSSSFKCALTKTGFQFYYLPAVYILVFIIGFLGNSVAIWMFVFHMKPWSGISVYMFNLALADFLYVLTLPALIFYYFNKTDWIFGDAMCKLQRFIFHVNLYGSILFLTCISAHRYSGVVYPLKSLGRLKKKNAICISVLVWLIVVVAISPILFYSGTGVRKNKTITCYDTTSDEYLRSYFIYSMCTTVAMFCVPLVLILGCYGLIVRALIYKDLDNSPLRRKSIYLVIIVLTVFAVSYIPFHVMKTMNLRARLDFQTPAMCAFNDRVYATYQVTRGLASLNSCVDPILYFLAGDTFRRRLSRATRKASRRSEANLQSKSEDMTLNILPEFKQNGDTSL

Plasma (Mus musculus) = experiment: Anticoagulant activity in mouse plasma assessed as prothrombin time
Plasma [2] = experiment: Anticoagulant activity in rabbit plasma assessed as activated partial thromboplastin time; type: functional, Oryctolagus cuniculus
Plasma [3] = experiment: Anticoagulant activity in rabbit plasma assessed as prothrombin time; type: functional, Oryctolagus cuniculus
Plasma [4] = experiment: Anticoagulant activity in rabbit plasma assessed as thrombin time; type: functional, Oryctolagus cuniculus
Coagulation factor X = Coagulation factor X (Mus musculus, UniProt O88947); experiment: Inhibition of mouse FXa
Coagulation factor X, sequence (O88947 41-180 limits assumed): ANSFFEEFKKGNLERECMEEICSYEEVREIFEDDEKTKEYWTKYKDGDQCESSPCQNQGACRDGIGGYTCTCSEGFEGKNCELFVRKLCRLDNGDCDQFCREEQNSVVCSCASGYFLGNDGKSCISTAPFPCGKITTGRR
Coagulation factor X, sequence (O88947 232-481 limits assumed): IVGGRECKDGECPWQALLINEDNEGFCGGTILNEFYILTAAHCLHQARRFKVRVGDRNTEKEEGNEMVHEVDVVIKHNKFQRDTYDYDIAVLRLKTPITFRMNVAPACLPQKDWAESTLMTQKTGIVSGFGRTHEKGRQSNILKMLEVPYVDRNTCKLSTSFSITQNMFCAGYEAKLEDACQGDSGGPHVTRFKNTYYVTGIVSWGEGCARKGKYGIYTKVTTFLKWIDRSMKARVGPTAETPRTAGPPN

[5] = Antiplatelet activity in human platelet; type: functional, cell-based
[6] = Antithrombotic activity in fresh platelet rich plasma; type: functional, cell-based
Plasma [7] = experiment: Anticoagulant activity in mouse plasma assessed inhibition of thrombin-induced platelet aggregation; type: functional, cell-free
[8] = Anticoagulant activity in human platelet assessed as reduction in thrombin-induced platelet aggregation in presence of ADP by measuring turbidity; type: functional, cell-based
[9] = Antiplatelet aggregation activity in rabbit platelet assessed as reduction in ADP-induced platelet aggregation; type: functional, cell-based; settings: Oryctolagus cuniculus
Plasma [10] = experiment: Antithrombotic activity in rat plasma; type: functional
Blood [11] = experiment: Antithrombotic activity in ferric chloride-treated carotid artery thrombosis Sprague-dawley rat blood assessed as clot weight at 10 mg/kg (RVB = 72.50 +/- 2 mg); type: functional
Blood [12] = experiment: Antithrombotic activity in photochemically induced arterial thrombosis Cynomolgus monkey blood assessed as decrease in occlusion time (reference value: 119 +/- 17.40 min); type: functional, Macaca fascicularis
Blood [13] = experiment: Antithrombotic activity in ferric chloride-treated carotid artery thrombosis Sprague-dawley rat blood assessed as clot weight at 50 mg/kg (RVB = 72.50 +/- 2 mg); type: functional
Plasma [14] = experiment: Antithrombotic activity in mouse plasma assessed as prothrombin time administered IV
Plasma [15] = experiment: Antithrombotic activity in mouse plasma assessed as clotting time administered IV
Plasma [16] = experiment: Antiplatelet activity in rabbit plasma assessed as inhibition of arachidonic acid induced platelet aggregation; type: functional, cell-free; settings: Oryctolagus cuniculus
Erythrocyte = experiment: Anticoagulant activity in human RBC assessed as decrease in epinephrine induced platelet aggregation by measuring increased clotting time relative to control; type: functional

Compound: COc1cc(/C=C/C(=O)OCCCCCCCCCOc2no[n+]([O-])c2S(=O)(=O)c2ccccc2)ccc1OC(=O)c1ccccc1OC(C)=O
inhibition (INH) (Rattus norvegicus): 15.7%

IC50 ([1]; platelet): 8 nM
Compound: CCCN(CCC)CC(=O)N1CCN(c2ccc(C3=NNC(=O)CC3C)cc2)CC1 (configuration not stated)
Ratio IC50 (Platelet): 60

IC50 (P2Y purinoceptor 1): 840 nM
Compound: CNc1nc(Cl)nc2c1ncn2CCC(COP(=O)(O)O)COP(=O)(O)O

Compound: Cc1cc(=O)oc2cc(OCCOc3ccccc3C(=O)OCCOc3ccc4ccc(=O)oc4c3)ccc12
Time (Plasma (Mus musculus)): 13.1 s

Compound: COc1ccc(-c2oc3cc(O)cc(O)c3c(=O)c2O)cc1OC
Time (Plasma [2]): 5.8 s
Time (Plasma [3]): 58.7 s
Time (Plasma [4]): 9.9 s

IC50 (Coagulation factor X): 2.5 nM
Compound: CC(=N)N1CCC(Oc2ccc3c(c2)C(=O)NS(=O)(=O)N3CC(=O)Nc2cccc(C(=N)N)c2)CC1

IC50 [5]: 50 nM
Compound: CC1CC(=O)NN=C1c1ccc(NC(=O)CN2CCCCC2)cc1 (configuration not stated)

IC50 [6]: 400 nM
Compound: O=C(O)CC1CCCCCCCCCNC(=O)OCOC(=O)C(Cc2ccccc2)NC1=O (configuration not stated)

IC50 (P2Y purinoceptor 1): 480 nM
Compound: CNc1nc(Cl)nc2c1ncn2CC(COP(=O)(O)O)COP(=O)(O)O

Compound: COc1cc(/C=C/C(=O)O)ccc1OCCN1CCOCC1
inhibition (INH) [1]: 91.4%

Compound: COc1cc(/C=C/C(=O)OCCOCCO[N+](=O)[O-])ccc1OC(=O)c1ccccc1OC(C)=O
inhibition (INH) (Rattus norvegicus): 16%

IC50 (Plasma [7]): 470 nM
Compound: CCOC(=O)CCN(C(=O)c1ccc2c(c1)nc1n2CCN(CC(=O)OCc2ccccc2)C1Cc1ccc(/C(N)=N/CC(=O)OCc2ccccc2)cc1)c1ccccc1 (configuration not stated)

Compound: COC(=O)c1ccccc1OCCOc1ccc2c(C)cc(=O)oc2c1
Time (Plasma (Mus musculus)): 8.44 s

IC50 [5]: 360 nM
Compound: O=C1CCC(c2ccc(Nc3ccncc3)cc2)=NN1 [SENAZODAN]

IC50 [8]: 66000 nM
Compound: O=C1CNC(=O)C(Cc2c[nH]cn2)N1 (configuration not stated)

IC50 [9]: 2500 nM
Compound: CCCCCCCCN1CCN(c2ccc(C3=NNC(=O)CC3)cc2)CC1

Compound: COc1cc(OC)c2c(=O)c(O)c(-c3ccc(O)c(O)c3)oc2c1
Time (Plasma [2]): 6.9 s
Time (Plasma [3]): 67.6 s
Time (Plasma [4]): 21.8 s

Compound: N#Cc1ccc(S[C@H]2C[C@@H](O)[C@H](O)CS2)cc1
ED50 (Plasma [10]): 7 mg/kg

Compound: CN(C)C(=O)c1ccc(NC(=O)c2ccc(-n3ccccc3=O)cc2)c(NC(=O)c2ccc(Cl)c(Cl)c2)c1
Time (Plasma [3]): 9.5 s

IC50 (Plasma [7]): 320 nM
Compound: CCOC(=O)CCN(C(=O)c1ccc2c(c1)nc1n2CCN(CC(=O)OCC)C1Cc1ccc(/C(N)=N/CC(=O)OCC)cc1)c1ccccc1 (configuration not stated)

IC50 (Plasma [7]): 570 nM
Compound: CCCCCOC(=O)C/N=C(\N)c1ccc(CC2c3nc4cc(C(=O)N(CCC(=O)OCC)c5ccccc5)ccc4n3CCN2CC(=O)OCCCCC)cc1 (configuration not stated)

Compound: O=C(COCC(=O)N1CCN(C(c2ccccc2)c2ccccc2)CC1)Nc1ccc(Cl)cc1C(=O)[O-].[Na+]
Activity (Blood [11]): 60.9 mg
Time (Blood [12]): 53.9 min
Activity (Blood [13]): 56.8 mg

Compound: O=C(Nc1ccc2oc(=O)ccc2c1)c1ccc(-c2noc(CCl)n2)cc1
Time (Plasma [14]): 42.3 s
Time (Plasma [15]): 17.7 s

Compound: COc1cc(O)cc2oc(-c3ccc(O)c(O)c3)c(O)c(=O)c12
Time (Plasma [2]): 7.6 s
Time (Plasma [3]): 49.2 s
Time (Plasma [4]): 19.4 s

IC50 (Plasma [16]): 18 µg/mL (≈ 63.8 µM)
Compound: Cc1ccc2c(c1)NC(CC(=O)c1ccccc1)C(=O)O2 (configuration not stated)

Compound: Cn1c(-c2ccc(Br)s2)nc2cc(-c3nnc(-c4cc(-c5cc(F)cc(F)c5)nc5ccccc45)o3)ccc21
inhibition (INH) (Erythrocyte): 93.4%

Compound: N#Cc1ccc(S[C@@H]2SC[C@@H](O)[C@H](O)[C@H]2O)cc1 [BECIPARCIL]
ED50 (Plasma [10]): 25 mg/kg

Compound: COc1cc(/C=C/C(=O)O)ccc1OCCN(C)C
inhibition (INH) [1]: 83.1%

Compound: COc1cc(O)c2c(=O)c(O)c(-c3ccc(O)c(O)c3)oc2c1 [RHAMNETIN]
Time (Plasma [2]): 6.8 s
Time (Plasma [3]): 72.6 s
Time (Plasma [4]): 23 s

IC50 (Plasma [16]): 17 µg/mL (≈ 39.8 µM)
Compound: O=C(CC1Nc2c(ccc(Cl)c2[N+](=O)[O-])OC1=O)c1ccc(Br)cc1 (configuration not stated)
